55 molecules from patent publication US20200369626A1 (Washington University, priority 2019, published 2020) can be followed below.

T1 sequence (O95136 whole entry): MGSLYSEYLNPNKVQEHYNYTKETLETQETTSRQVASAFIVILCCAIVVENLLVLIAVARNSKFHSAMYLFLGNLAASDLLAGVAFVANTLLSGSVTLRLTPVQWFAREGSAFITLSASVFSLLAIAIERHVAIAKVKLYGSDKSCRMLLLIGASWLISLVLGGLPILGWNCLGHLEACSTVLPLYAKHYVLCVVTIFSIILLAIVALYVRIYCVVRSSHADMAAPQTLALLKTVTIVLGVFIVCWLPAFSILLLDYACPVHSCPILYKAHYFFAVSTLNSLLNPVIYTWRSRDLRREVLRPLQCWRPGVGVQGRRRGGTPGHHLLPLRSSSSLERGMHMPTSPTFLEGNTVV

One assay concerns the target T1, S1PR2 (Homo sapiens, UniProt O95136).
T1 construct: purchased
Briefly: competitive [^32P]S1P binding assay on cell membranes, S1PR2. To be noted: Table 5; read-out: IC50 S1PR2.
`CCC(CC)CC1(O)CCN(C(=O)Nc2cc(C#N)cc(Oc3ccc(S(C)(=O)=O)cc3)c2)CC1` [TZ59-014]: the concentration for half-maximal inhibition (IC50) was over 1000 nM.
`CCOc1ccc(C(=O)Cn2c(=O)n(Cc3ccccc3)c(=O)c3ccccc32)cc1Cl` [TZ62-097]: the IC50 was over 1000 nM.
Still for that read-out and setting: in the case of `COc1ccccc1NC(=O)Cn1c(=O)[nH]c2ccccc2c1=O` [TZ62-004] it was over 1000 nM; in that of `CCC(CC)CC1(O)CCN(C(=O)Nc2cc(C)cc(Oc3ccc(S(C)(=O)=O)cc3)c2)CC1` [TZ59-008], over 1000 nM; in that of `CCC(CC)CC1(O)CCN(C(=O)Nc2cc(Oc3ccc(C(=O)NC)cc3)c3c(c2)oc2ccc(F)cc23)CC1` [TZ51-011], 472 ± 244 nM.
On the same count and under the same terms, as for `CCC1(O)CCN(C(=O)Nc2cc(Oc3ccc(C(=O)NC)cc3)cc(C(F)(F)F)c2)CC1` [TZ51-046], the figure is over 1000 nM; as for `COc1cc(OC)c(NC(=O)Cn2c(=O)n(CCO)c(=O)c3ccccc32)cc1Cl` [TZ62-082], over 1000 nM; as for `CC(C)CC1(O)CC(C(=O)Nc2cc(Oc3ccc(F)cc3)cc(Oc3ccc(S(C)(=O)=O)cc3)c2)C1` (stereo not shown) [TZ57-121], 654 ± 349 nM.
Same read-out and setting: in the case of `CC(C)CC1(O)CCN(C(=O)Nc2cc(Oc3ccc(S(C)(=O)=O)cc3)cc(Oc3ccc(F)nc3)c2)CC1` [TZ57-040] it was 211 ± 32 nM.
Turning to `CCC(CC)CC1(O)CCN(C(=O)Nc2cc(Oc3ccc(B4OC(C)(C)C(C)(C)O4)cc3)cc(Sc3ccc(S(C)(=O)=O)cc3)c2)CC1` [TZ57-150], the IC50 was over 1000 nM.
The same measure, in the same setting: as for `CCC(CC)CC1(O)CCN(C(=O)Nc2nc(Oc3ccc(F)cc3)nc(Oc3ccc(F)cc3)n2)CC1` [TZ51-150], the figure is over 1000 nM; as for `COc1cccc(NC(=O)Cn2c(=O)c3ccccc3n(CC(=O)Nc3cc(Cl)c(OC)cc3OC)c2=O)c1` [TZ59-131, N-(5-Chloro-2,4-dimethoxyphenyl)-2-(3-(2-((3-methoxyphenyl)amino)-2-oxoethyl)-2,4-dioxo-3,4-dihydroquinazolin-1(2H)-yl)acetamide], 39.1 ± 7 nM.
Take `CCC(CC)CC1(O)CCN(C(=O)Nc2ccc(Oc3ccc(S(C)(=O)=O)cc3)cc2)CC1` [TZ57-104]: the IC50 is over 1000 nM.
On to `CNC(=O)c1ccc(Oc2cc(NC(=O)N3CC(N4CCN(C)CC4)C3)cc(C(F)(F)F)c2)cc1` [TZ51-112], for which the IC50 was over 1000 nM.
Turning to `CC(C)C1(O)CCN(C(=O)Nc2cc(Oc3ccncc3)cc(C(F)(F)F)c2)CC1` [TZ51-061], the IC50 was over 1000 nM.
Take `COc1cc(OC)c(NC(=O)Cn2c(=O)n(CCF)c(=O)c3ccccc32)cc1Cl` [TZ62-083]: the IC50 was over 1000 nM.
Consider `CCC(CC)CC1(O)CCN(C(=O)Nc2cc(N(C(=O)OC(C)(C)C)c3ccc(S(C)(=O)=O)cc3)cc(C(F)(F)F)c2)CC1` [TZ59-061], for which the IC50 was over 1000 nM.
For `CNC(=O)c1ccc(Oc2cc(NC(=O)N3CCC(O)(CC(C)C)CC3)cc(C(F)(F)F)c2)cc1` [TZ51-108], the half-inhibitory concentration (IC50) was over 1000 nM.
Still for that read-out and setting: as for `COc1ccc(C(=O)Cn2c(=O)n(CCCC(=O)NC3CCCC3)c(=O)c3cc(Cl)ccc32)cc1Cl` [TZ62-039], the figure is over 1000 nM; as for `CC1(O)CCN(C(=O)Nc2cc(Oc3ccc(S(C)(=O)=O)cc3)cc(C(F)(F)F)c2)CC1` [TZ51-058], over 1000 nM.
For the molecule `CC(C)CC1(O)CCN(C(=O)Nc2cccc(NC(=O)N3CCC(O)(CC(C)C)CC3)c2)CC1` [TZ57-115], the 50% inhibitory concentration (IC50) is over 1000 nM.
In the case of `CCOc1ccc(C(=O)Cn2c(=O)n(CCCC(=O)N3CCCC3)c(=O)c3cc(Cl)ccc32)cc1Cl` [TZ62-052], the IC50 is over 1000 nM.
In the case of `CCC(CC)CC1(O)CCN(C(=O)Nc2cc(Oc3ccc(F)cc3)cc(N3CCN(C)CC3)c2)CC1` [TZ57-013], the IC50 is over 1000 nM.
As to `COc1ccccc1NC(=O)Cn1c(=O)c2ccccc2n(CC(=O)Nc2cc(Cl)ccc2OC)c1=O` [TZ62-008], the IC50 is 54.9 ± 6 nM.
As to `CCC(CC)CC1(O)CCN(C(=O)Nc2cc(F)cc(C(F)(F)F)c2)CC1` [TZ59-042], the IC50 is over 1000 nM.
In the case of `COc1cc(OC)c(NC(=O)Cn2c(=O)n(CCCC(=O)NC3CCCC3)c(=O)c3cc(Cl)ccc32)cc1Cl` [TZ62-091], the IC50 is over 1000 nM.
As to `CNC(=O)c1ccc(Oc2cc(NC(=O)N3CCC(O)(CC(C)C)C3)cc(Oc3ccc(F)cc3)c2)cc1` (stereo not shown) [TZ57-122], the IC50 came out at 77 ± 16 nM.
Consider `COc1cc(OC)c(NC(=O)Cn2c(=O)n(C)c(=O)c3ccccc32)cc1Cl` [TZ62-084], for which the 50% inhibitory concentration (IC50) is over 1000 nM.
On to `CCOc1ccc(C(=O)Cn2c(=O)n(CCCC(=O)N3CCCC3)c(=O)c3ccccc32)cc1Cl` [TZ62-050], for which the concentration for half-maximal inhibition (IC50) is over 1000 nM.
On the same count and under the same terms, in the case of `COc1cc(OC)c(NC(=O)Cn2c(=O)n(Cc3ccccc3)c(=O)c3ccccc32)cc1Cl` [TZ62-077] it was over 1000 nM; in that of `COc1ccc(C(=O)Cn2c(=O)n(CCCC(=O)N3CCCC3)c(=O)c3ccccc32)cc1Cl` [TZ62-051], over 1000 nM; in that of `COc1cc(OC)c(NC(=O)Cn2c(=O)n(CC(=O)Nc3ccc(OCCF)cc3)c(=O)c3ccccc32)cc1Cl` [TZ65-049], 10 ± 2.4 nM.
On to `COc1cc(OC)c(NC(=O)Cn2c(=O)n(CC(=O)NCCOCCO)c(=O)c3ccccc32)cc1Cl` [TZ59-132, N-(5-Chloro-2,4-dimethoxyphenyl)-2-(3-(2-((2-(2-hydroxyethoxy)ethyl)amino)-2-oxoethyl)-2,4-dioxo-3,4-dihydroquinazolin-1(2H)-yl)acetamide], for which the 50% inhibitory concentration (IC50) was 91.4 ± 17.6 nM.
For the molecule `CNC(=O)c1ccc(Oc2cc(NC(=O)N3CC[C@@]4(O)CCCC[C@H]4C3)cc(Oc3ccc(F)cc3)c2)cc1` [TZ57-096], the half-inhibitory concentration (IC50) is over 1000 nM.
Consider `CC(C)CC1(O)CCN(C(=O)Nc2cc(Oc3ccc(C(N)=O)cc3)cc(C(F)(F)F)c2)CC1` [TZ51-096], for which the IC50 was over 1000 nM.
`CCC(CC)CC1(O)CCN(C(=O)Nc2cc(F)cc(C(O)c3ccc(S(C)(=O)=O)cc3)c2)CC1` (stereo not shown) [TZ59-080]: the IC50 was over 1000 nM.
As for `COc1ccccc1NC(=O)Cn1c(=O)c2ccccc2n(CC(=O)Nc2cc(Cl)nc(Cl)c2)c1=O` [TZ62-093], the IC50 was over 1000 nM.
Turning to `COc1ccc(Oc2cc(NC(=O)N3CCC(O)(C(C)C)CC3)cc(C(F)(F)F)c2)cc1` [TZ51-059], the IC50 is over 1000 nM.
On the same count and under the same terms, in the case of `CCOc1ccc(C(=O)Cn2cc(C(=O)O)c(=O)c3ccccc32)cc1Cl` [TZ62-120] it was 270 ± 210 nM.
For the molecule `COc1cc(OC)c(NC(=O)Cn2c(=O)n(CC(=O)N(C)C)c(=O)c3ccccc32)cc1Cl` [TZ59-136, 2-(1-(2-((5-Chloro-2,4-dimethoxyphenyl)amino)-2-oxoethyl)-2,4-dioxo-1,4-dihydroquinazolin-3(2H)-yl)-N,N-dimethylacetamide], the IC50 stood at 175 ± 13 nM.
`CCOc1ccc(C(=O)Cn2c(=O)n(CCCC(=O)NC3CCCC3)c(=O)c3ccccc32)cc1Cl` [TZ62-048]: the IC50 stood at 85 ± 10 nM.
For `COc1cc(OC)c(NC(=O)Cn2c(=O)n(CC(=O)NCCOCCOCCO)c(=O)c3ccccc32)cc1Cl` [TZ59-133, N-(5-Chloro-2,4-dimethoxyphenyl)-2-(3-(2-((2-(2-(2-hydroxyethoxy)ethoxy)ethyl)amino)-2-oxoethyl)-2,4-dioxo-3,4-dihydroquinazolin-1(2H)-yl)acetamide], the IC50 is 204 ± 96 nM.
Turning to `COc1cc(OC)c(NC(=O)Cn2c(=O)n(CCCC(=O)NC3CCCC3)c(=O)c3ccccc32)cc1Cl` [TZ62-090], the IC50 was determined as 76 ± 19 nM.
As for `CCC(CC)CC1(O)CCN(C(=O)Nc2cc(OCCF)cc(C(F)(F)F)c2)CC1` [TZ59-044], the IC50 was over 1000 nM.
In the case of `CCn1c(=O)c2ccccc2n(CC(=O)Nc2cc(Cl)c(OC)cc2OC)c1=O` [TZ62-087], the IC50 was over 1000 nM.
Regarding `CNC(=O)c1ccc(Oc2cc(NC(=O)N3CCC(O)(C(C)C)CC3)cc(C(F)(F)F)c2)cc1` [TZ51-044], the IC50 is over 1000 nM.
On the same count and under the same terms, as for `CCOc1ccc(C(=O)Cn2c(=O)n(CCF)c(=O)c3ccccc32)cc1Cl` [TZ62-100], the figure is over 1000 nM.

The same assay, now with this note: [^32P]S1P competition, IC50 ± SD, Table 1 (2a-l, 4a-h); read-out: IC50 (binding potency toward S1PR2).
Take `COc1cc(OC)c(NC(=O)Cn2c(=O)n(CC(=O)NCCc3cccnc3)c(=O)c3ccccc32)cc1Cl` [Compound 2f]: the half-inhibitory concentration (IC50) is 58.7 ± 9 nM.

The same assay, now with this note: [^32P]S1P competition, IC50 ± SD, second Table 1; read-out: S2PR2 IC50.
For the molecule `CCC1(O)CCN(C(=O)Nc2cc(Oc3ccc(C(=O)NC)cc3)cc(C(F)(F)F)c2)CC1` [Compound 25c, 4-Ethyl-4-hydroxy-N-(3-(4-(methylcarbamoyl)phenoxy)-5-(trifluoromethyl)phenyl)piperidine-1-carboxamide], the IC50 was over 1000 nM.
The same measure, in the same setting: in the case of `CNC(=O)c1ccc(Oc2cc(NC(=O)N3CCC(O)(CC(C)C)CC3)cc(C(F)(F)F)c2)cc1` [Compound 25g, 4-Hydroxy-4-isobutyl-N-(3-(4-(methylcarbamoyl)phenoxy)-5-(trifluoromethyl)phenyl)piperidine-1-carboxamide] it was 359 nM; in that of `CC1(O)CCN(C(=O)Nc2cc(Oc3ccc(S(C)(=O)=O)cc3)cc(C(F)(F)F)c2)CC1` [Compound 25b, 4-Hydroxy-4-methyl-N-(3-(4-(methylsulfonyl)phenoxy)-5-(trifluoromethyl)phenyl)piperidine-1-carboxamide], over 1000 nM.
Turning to `CCC(CC)CC1(O)CCN(C(=O)Nc2cc(Oc3ccc(C(=O)NC)cc3)cc(C(F)(F)F)c2)CC1` [Compound 21c, 4-(2-Ethylbutyl)-4-hydroxy-N-(3-(4-(methylcarbamoyl)-phenoxy)-5 (trifluoromethyl)phenyl)piperidine-1-carboxamide], the concentration for half-maximal inhibition (IC50) is 278 nM.
On the same count and under the same terms, as for `CNC(=O)c1ccc(Oc2cc(NC(=O)N3CCC(O)(C(C)C)CC3)cc(C(F)(F)F)c2)cc1` [Compound 25e, 4-Hydroxy-4-isopropyl-N-(3-(4-(methylcarbamoyl)phenoxy)-5-(trifluoromethyl)phenyl)piperidine-1-carboxamide], the figure is over 1000 nM; as for `CNC(=O)c1ccc(Oc2cc(NC(=O)N3CCC(C)(O)CC3)cc(C(F)(F)F)c2)cc1` [Compound 25a, 4-Hydroxy-4-methyl-N-(3-(4-(methylcarbamoyl)phenoxy)-5-(trifluoromethyl)phenyl)piperidine-1-carboxamide], over 1000 nM.

Staying with this assay, now noted: [^32P]S1P competition; read-out: IC50 value, S1PR2 binding.
On to `O=[N+]([O-])c1cc(Oc2ccc(F)cc2)cc(-n2cccn2)c1` [Compound 15b, 1-(3-(4-Fluorophenoxy)-5-nitrophenyl)-1H-pyrazole], for which the IC50 is over 1000 nM.

The term IC50 denotes the point on the concentration scale where inhibition reaches its midpoint.
